# Laboratory results reported in patent US11161855B2, “Tricyclic fused thiophene derivatives as JAK inhibitors” (Incyte Corporation, priority 2012, dated 2021).
# Test system: human JAK1 (a.a. 837-1142)
# Test: In vitro JAK kinase assay (HTRF), JAK1
# Type: biochemical
# Conditions: ratio of IC50s, 1 mM ATP
# Protocol: Compounds herein were tested for inhibitory activity of JAK targets according to the following in vitro assay described in Park et al., Analytical Biochemistry 1999, 269, 94-104. The catalytic domains of human JAK1 (a.a. 837-1142), JAK2 (a.a. 828-1132) and JAK3 (a.a. 781-1124) were expressed using baculovirus in insect cells and purified. The catalytic activity of JAK1, JAK2 or JAK3 was assayed by measuring the phosphorylation of a biotinylated peptide. The phosphorylated peptide was detected by homogenous time resolved fluorescence (HTRF). IC50s of compounds were measured for each kinase in the 40 μL reactions that contain the enzyme, ATP and 500 nM peptide in 50 mM Tris (pH 7.8) buffer with 100 mM NaCl, 5 mM DTT, and 0.1 mg/mL (0.01%) BSA. For the 1 mM IC50 measurements, ATP concentration in the reactions was 1 mM. Reactions were carried out at room temperature for 1 hour and then stopped with 20 μL 45 mM EDTA, 300 nM SA-APC, 6 nM Eu-Py20 in assay buffer (Perkin Elmer, Boston, Mass.). Binding to the Europium labeled antibody took place for 40 minutes and HTRF signal was measured on a PHERA star plate reader (BMG, Cary, N.C.). The Example compounds were each tested in the Example A assay (see Table 1 for data for the compounds of the examples as tested by the assay of Example A at 1 mM ATP).
row,JAK2/JAK1,SMILES
1,>10,"C[C@@H](O)c1nc2cnc3ccsc3c2n1C1CCC(O)(CC#N)CC1 (single isomer, unassigned) [24 (first peak)]"
2,>10,"C[C@@H](O)c1nc2cnc3ccsc3c2n1C1CCC(O)(CC#N)CC1 (single isomer, unassigned) [24 (second peak)]"
3,>2,"C[C@@H](O)c1nc2cnc3ccsc3c2n1C1CCC(NCCC#N)CC1 (single isomer, unassigned) [30 (first peak)]"
4,>10,"C[C@@H](O)c1nc2cnc3ccsc3c2n1C1CCC(NCCC#N)CC1 (single isomer, unassigned) [30 (second peak)]"
5,>5,"N#CCC1CCC(CO)(n2cnc3cnc4ccsc4c32)CC1 (single isomer, unassigned) [72 (second peak), [4-(Hydroxymethyl)-4-(1H-imidazo[4,5-d]thieno[3,2-b]pyridin-1-yl)cyclohexyl]acetonitrile]"
6,>10,"C[C@@H](O)c1nc2cnc3ccsc3c2n1C1CCNCC1F (stereo partly drawn) [9 (2nd peak), (1R)-1-[1-(3-Fluoropiperidin-4-yl)-1H-imidazo[4,5-d]thieno[3,2-b]pyridin-2-yl]ethanol]"
7,>3,"C[C@@H](O)c1nc2cnc3ccsc3c2n1[C@H]1CCCOC1 [Example 1, (1R)-1-{1-[(3S)-Tetrahydro-2H-pyran-3-yl]-1H-imidazo[4,5-d]thieno[3,2-b]pyridin-2-yl}ethanol]"
8,>10,"C[C@@H](O)c1nc2cnc3ccsc3c2n1[C@H]1CC[C@H](CC#N)CC1 [Example 2, (trans-4-{2-[(1R)-1-Hydroxyethyl]-1H-imidazo[4,5-d]thieno[3,2-b]pyridin-1-yl}cyclohexyl)acetonitrile]"
9,>10,"C[C@@H](O)c1nc2cnc3ccsc3c2n1[C@H]1CC[C@H](O)CC1 [Example 3, trans-4-{2-[(1R)-1-Hydroxyethyl]-1Z-imidazo[4,5-d]thieno[3,2-b]pyridin-1-yl}cyclohexanol]"
10,>10,"C[C@@H](O)c1nc2cnc3ccsc3c2n1[C@H]1CC[C@H](NCC(F)(F)F)CC1 [Example 4, (1R)-1-(1-{trans-4-[(2,2,2-Trifluoroethyl)amino]cyclohexyl}-1H-imidazo[4,5-d]thieno[3,2-b]pyridin-2-yl)ethanol]"
11,>10,"C[C@@H](O)c1nc2cnc3ccsc3c2n1[C@H]1CC[C@H](CCS(C)(=O)=O)CC1 [Example 5, (1R)-1-(1-{trans-4-[2-(Methylsulfonyl)ethyl]cyclohexyl}-1H-imidazo[4,5-d]thieno[3,2-b]pyridin-2-yl)ethanol]"
12,>6,"C[C@@H](O)c1nc2cnc3ccsc3c2n1[C@H]1CC[C@@H](n2cncn2)CC1 [Example 6, (1R)-1-{1-[cis-4-(1H-1,2,4-Triazol-1-yl)cyclohexyl]-1H-imidazo[4,5-d]thieno[3,2-b]pyridin-2-yl}ethanol]"
13,>10,"C[C@@H](O)c1nc2cnc3ccsc3c2n1[C@H]1CC[C@@H](C#N)CC1 [Example 7, cis-4-{2-[(1R)-1-Hydroxyethyl]-1H-imidazo[4,5-d]thieno[3,2-b]pyridin-1-yl}cyclohexanecarbonitrile]"
14,>10,"C[C@@H](O)c1nc2cnc3ccsc3c2n1[C@H]1CC[C@H](CCC#N)CC1 [Example 8, 3-(trans-4-{2-[(1R)-1-Hydroxyethyl]-1H-imidazo[4,5-d]thieno[3,2-b]pyridin-1-yl}cyclohexyl)propanenitrile]"
15,>10,"C[C@@H](O)c1nc2cnc3ccsc3c2n1[C@H]1CC[C@H](CC#N)CC1.Cl [Example 10, (trans-4-{2-[(1R)-1-Hydroxyethyl]-1H-imidazo[4,5-d]thieno[3,2-b]pyridin-1-yl}cyclohexyl)acetonitrile HCl Salt]"
16,>10,"C[C@@H](O)c1nc2cnc3ccsc3c2n1[C@H]1CC[C@H](CO)CC1 [Example 11, (1R)-1-{1-[trans-4-(Hydroxymethyl)cyclohexyl]-1H-imidazo[4,5-d]thieno[3,2-b]pyridin-2-yl}ethanol]"
17,>10,"C[C@@H](O)c1nc2cnc3ccsc3c2n1[C@H]1CC[C@H](CF)CC1 [Example 12, (1R)-1-{1-[trans-4-(Fluoromethyl)cyclohexyl]-1H-imidazo[4,5-d]thieno[3,2-b]pyridin-2-yl}ethanol]"

row,JAK2/JAK1,SMILES
1,>10,"C[C@@H](O)c1nc2cnc3ccsc3c2n1C1CCCCC1 [Example 13, (1R)-1-(1-Cyclohexyl-1H-imidazo[4,5-d]thieno[3,2-b]pyridin-2-yl)ethanol]"
2,>5,"CNS(=O)(=O)C[C@H]1CC[C@H](n2c([C@@H](C)O)nc3cnc4ccsc4c32)CC1 [Example 14, 1-(trans-4-{2-[(1R)-1-hydroxyethyl]-1H-imidazo[4,5-d]thieno[3,2-b]pyridin-1-yl}cyclohexyl)-N-methylmethanesulfonamide]"
3,>9,"C[C@@H](O)c1nc2cnc3ccsc3c2n1C1CCN(CC(F)(F)F)CC1 [Example 15, (1R)-1-{1-[1-(2,2,2-Trifluoroethyl)piperidin-4-yl]-1H-imidazo[4,5-d]thieno[3,2-b]pyridin-2-yl}ethanol]"
4,>10,"C[C@@H](O)c1nc2cnc3ccsc3c2n1C1CCN(CCC#N)CC1 [Example 16, 3-(4-{2-[(1R)-1-Hydroxyethyl]-1H-imidazo[4,5-d]thieno[3,2-b]pyridin-1-yl}piperidin-1-yl)propanenitrile]"
5,>10,"N#CC[C@H]1CC[C@H](n2c(CO)nc3cnc4ccsc4c32)CC1 [Example 17, {trans-4-[2-(Hydroxymethyl)-1H-imidazo[4,5-d]thieno[3,2-b]pyridin-1-yl]cyclohexyl}acetonitrile]"
6,>10,"CS(=O)(=O)NCc1nc2cnc3ccsc3c2n1[C@H]1CC[C@H](CC#N)CC1 [Example 18, N-({1-[trans-4-(Cyanomethyl)cyclohexyl]-1H-imidazo[4,5-d]thieno[3,2-b]pyridin-2-yl}methyl)methanesulfonamide]"
7,>10,"C[C@@H](O)c1nc2cnc3ccsc3c2n1[C@H]1CCC(CO)OC1 (stereo partly drawn) [Example 19, (1R)-1-{1-[(3S)-6-(Hydroxymethyl)tetrahydro-2H-pyran-3-yl]-1H-imidazo[4,5-d]thieno[3,2-b]pyridin-2-yl}ethanol]"
8,>10,"C[C@@H](O)c1nc2cnc3ccsc3c2n1[C@H]1CC[C@H](CC#N)OC1 [Example 20, ((2R,5S)-5-{2-[(1R)-1-Hydroxyethyl]-1H-imidazo[4,5-d]thieno[3,2-b]pyridin-1-yl}tetrahydro-2H-pyran-2-yl)acetonitrile]"
9,>10,"C[C@@H](O)c1nc2cnc3ccsc3c2n1[C@H]1CC[C@@H](CC#N)OC1 [Example 21, ((2S,5S)-5-{2-[(1R)-1-Hydroxyethyl]-1H-imidazo[4,5-d]thieno[3,2-b]pyridin-1-yl}tetrahydro-2H-pyran-2-yl)acetonitrile]"
10,>4,"CS(=O)(=O)NCc1nc2cnc3ccsc3c2n1[C@H]1CC2CCC1C2 (stereo partly drawn) [Example 22, N-((1-((2S)-Bicyclo[2.2.1]heptan-2-yl)-1H-imidazo[4,5-d]thieno[3,2-b]pyridin-2-yl)methyl)methanesulfonamide]"
11,>10,"C[C@@H](O)c1cc2cnc3ccsc3c2n1[C@H]1CC[C@H](CC#N)CC1 [Example 23, (trans-4-{7-[(1R)-1-Hydroxyethyl]-8H-pyrrolo[2,3-d]thieno[3,2-b]pyridin-8-yl}cyclohexyl)acetonitrile]"
12,>6,"N#CC[C@H]1CC[C@H](n2/c(=N/C#N)[nH]c3cnc4ccsc4c32)CC1.O=C(O)C(F)(F)F [Example 25, {(2E)-1-[trans-4-(Cyanomethyl)cyclohexyl]-1,3-dihydro-2H-imidazo[4,5-d]thieno[3,2-b]pyridin-2-ylidene}cyanamide Trifluoroacetate]"
13,>10,"N#CC[C@H]1CC[C@H](n2c(C3CC3)nc3cnc4ccsc4c32)CC1 [Example 26, [trans-4-(2-Cyclopropyl-1H-imidazo[4,5-d]thieno[3,2-b]pyridin-1-yl)cyclohexyl]acetonitrile]"
14,>10,"CC(C)c1nc2cnc3ccsc3c2n1[C@H]1CC[C@H](CC#N)CC1 [Example 27, [trans-4-(2-Isopropyl-1H-imidazo[4,5-d]thieno[3,2-b]pyridin-1-yl)cyclohexyl]acetonitrile]"
15,>7,"N#CC[C@H]1CC[C@H](n2c(C3CNC3)nc3cnc4ccsc4c32)CC1 [Example 28, [trans-4-(2-Azetidin-3-yl-1H-imidazo[4,5-d]thieno[3,2-b]pyridin-1-yl)cyclohexyl]acetonitrile]"
16,>9,"CN1CC(c2nc3cnc4ccsc4c3n2[C@H]2CC[C@H](CC#N)CC2)C1 [Example 29, {trans-4-[2-(1-Methylazetidin-3-yl)-1H-imidazo[4,5-d]thieno[3,2-b]pyridin-1-yl]cyclohexyl}acetonitrile]"
17,>10,"CCNC(=O)C[C@H]1CC[C@H](n2c([C@@H](C)O)nc3cnc4ccsc4c32)CC1 [Example 31, N-Ethyl-2-(trans-4-{2-[(1R)-1-hydroxyethyl]-1H-imidazo[4,5-d]thieno[3,2-b]pyridin-1-yl}cyclohexyl)acetamide]"

row,SMILES,JAK2/JAK1
1,"Cc1nc2cnc3ccsc3c2n1[C@H]1CC[C@H](CC#N)[C@@H](O)C1 (single isomer, unassigned) [41 (first peak)]",>10
